The target in test [1] is Serine/threonine-protein kinase 33 (Homo sapiens) (UniProt Q9BYT3). Description: Inhibition of human STK33 at 18.6 nM by HotSpot assay relative to control.
The target of test [2] is T1, cGMP-dependent protein kinase 2 (Homo sapiens) (UniProt Q13237).
T1 sequence (whole entry): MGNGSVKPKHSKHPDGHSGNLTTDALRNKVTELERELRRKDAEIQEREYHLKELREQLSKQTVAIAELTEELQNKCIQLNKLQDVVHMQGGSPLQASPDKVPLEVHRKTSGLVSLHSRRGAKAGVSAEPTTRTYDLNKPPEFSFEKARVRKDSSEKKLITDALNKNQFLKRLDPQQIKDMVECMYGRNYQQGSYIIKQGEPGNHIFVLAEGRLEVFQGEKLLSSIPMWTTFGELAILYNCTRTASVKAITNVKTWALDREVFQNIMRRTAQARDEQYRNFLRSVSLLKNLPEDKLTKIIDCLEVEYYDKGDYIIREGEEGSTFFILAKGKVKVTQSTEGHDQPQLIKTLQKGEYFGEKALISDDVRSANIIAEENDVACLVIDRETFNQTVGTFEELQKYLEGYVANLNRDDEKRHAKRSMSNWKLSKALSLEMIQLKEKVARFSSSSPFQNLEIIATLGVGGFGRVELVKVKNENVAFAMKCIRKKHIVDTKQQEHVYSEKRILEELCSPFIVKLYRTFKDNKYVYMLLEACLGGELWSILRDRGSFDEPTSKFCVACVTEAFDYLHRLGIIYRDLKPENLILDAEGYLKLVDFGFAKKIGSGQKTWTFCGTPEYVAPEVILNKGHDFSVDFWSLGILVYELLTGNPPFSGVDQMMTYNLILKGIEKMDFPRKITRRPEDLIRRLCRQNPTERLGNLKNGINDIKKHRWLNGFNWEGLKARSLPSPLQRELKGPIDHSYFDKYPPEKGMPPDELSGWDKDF
Kind of test: Inhibition of human PRKG2 at 18.6 nM by HotSpot assay relative to control.

Test [3] concerns the target Tyrosine-protein kinase Fyn (Homo sapiens) (UniProt P06241). Kind of test: Inhibition of human FYN at 1.82 nM by HotSpot assay relative to control.
Test [4] deals with Dual specificity protein kinase CLK3 (Homo sapiens) (UniProt P49761). The following applies: dose 1.82 nM.
Dual specificity protein kinase CLK3 (Homo sapiens), sequence (P49761 whole entry, looked up): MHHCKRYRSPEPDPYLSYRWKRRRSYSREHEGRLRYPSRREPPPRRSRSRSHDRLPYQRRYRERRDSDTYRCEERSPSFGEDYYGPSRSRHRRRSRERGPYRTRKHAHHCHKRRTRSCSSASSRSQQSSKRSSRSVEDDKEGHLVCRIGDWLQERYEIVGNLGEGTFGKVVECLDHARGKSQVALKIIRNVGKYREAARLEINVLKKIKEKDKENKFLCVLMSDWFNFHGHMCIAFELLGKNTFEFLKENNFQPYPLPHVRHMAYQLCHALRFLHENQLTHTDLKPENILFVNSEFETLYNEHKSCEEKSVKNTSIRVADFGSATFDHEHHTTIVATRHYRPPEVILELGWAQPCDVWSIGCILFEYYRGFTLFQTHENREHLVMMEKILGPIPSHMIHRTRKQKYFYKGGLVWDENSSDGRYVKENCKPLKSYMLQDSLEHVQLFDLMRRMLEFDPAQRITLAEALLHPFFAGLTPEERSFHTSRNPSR
Description: Inhibition of human CLK3 at 1.82 nM by HotSpot assay relative to control
Test [5] concerns the target T2, Serine/threonine-protein kinase Nek11 (Homo sapiens) (UniProt Q8NG66).
T2 sequence (whole entry): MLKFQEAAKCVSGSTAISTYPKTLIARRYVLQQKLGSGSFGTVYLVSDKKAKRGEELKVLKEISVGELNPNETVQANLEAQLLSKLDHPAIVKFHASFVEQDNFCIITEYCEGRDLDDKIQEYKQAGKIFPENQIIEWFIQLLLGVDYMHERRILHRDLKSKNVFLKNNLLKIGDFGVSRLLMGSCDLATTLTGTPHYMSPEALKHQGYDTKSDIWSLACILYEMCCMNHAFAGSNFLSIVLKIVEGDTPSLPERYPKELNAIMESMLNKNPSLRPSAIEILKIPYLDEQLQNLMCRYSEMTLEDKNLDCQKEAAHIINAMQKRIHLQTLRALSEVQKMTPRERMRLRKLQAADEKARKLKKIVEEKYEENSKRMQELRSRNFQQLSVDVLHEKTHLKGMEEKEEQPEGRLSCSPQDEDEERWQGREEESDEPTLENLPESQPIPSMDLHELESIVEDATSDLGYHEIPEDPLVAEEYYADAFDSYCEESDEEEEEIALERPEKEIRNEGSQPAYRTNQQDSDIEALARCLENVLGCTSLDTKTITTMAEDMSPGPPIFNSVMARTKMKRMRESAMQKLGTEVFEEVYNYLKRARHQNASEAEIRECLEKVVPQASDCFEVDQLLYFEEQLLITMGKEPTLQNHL
Description: Inhibition of human NEK11 at 1.82 nM by HotSpot assay relative to control.

Test [6] concerns the target T3, Serine/threonine-protein kinase Nek1 (Homo sapiens) (UniProt Q96PY6).
T3 sequence (whole entry): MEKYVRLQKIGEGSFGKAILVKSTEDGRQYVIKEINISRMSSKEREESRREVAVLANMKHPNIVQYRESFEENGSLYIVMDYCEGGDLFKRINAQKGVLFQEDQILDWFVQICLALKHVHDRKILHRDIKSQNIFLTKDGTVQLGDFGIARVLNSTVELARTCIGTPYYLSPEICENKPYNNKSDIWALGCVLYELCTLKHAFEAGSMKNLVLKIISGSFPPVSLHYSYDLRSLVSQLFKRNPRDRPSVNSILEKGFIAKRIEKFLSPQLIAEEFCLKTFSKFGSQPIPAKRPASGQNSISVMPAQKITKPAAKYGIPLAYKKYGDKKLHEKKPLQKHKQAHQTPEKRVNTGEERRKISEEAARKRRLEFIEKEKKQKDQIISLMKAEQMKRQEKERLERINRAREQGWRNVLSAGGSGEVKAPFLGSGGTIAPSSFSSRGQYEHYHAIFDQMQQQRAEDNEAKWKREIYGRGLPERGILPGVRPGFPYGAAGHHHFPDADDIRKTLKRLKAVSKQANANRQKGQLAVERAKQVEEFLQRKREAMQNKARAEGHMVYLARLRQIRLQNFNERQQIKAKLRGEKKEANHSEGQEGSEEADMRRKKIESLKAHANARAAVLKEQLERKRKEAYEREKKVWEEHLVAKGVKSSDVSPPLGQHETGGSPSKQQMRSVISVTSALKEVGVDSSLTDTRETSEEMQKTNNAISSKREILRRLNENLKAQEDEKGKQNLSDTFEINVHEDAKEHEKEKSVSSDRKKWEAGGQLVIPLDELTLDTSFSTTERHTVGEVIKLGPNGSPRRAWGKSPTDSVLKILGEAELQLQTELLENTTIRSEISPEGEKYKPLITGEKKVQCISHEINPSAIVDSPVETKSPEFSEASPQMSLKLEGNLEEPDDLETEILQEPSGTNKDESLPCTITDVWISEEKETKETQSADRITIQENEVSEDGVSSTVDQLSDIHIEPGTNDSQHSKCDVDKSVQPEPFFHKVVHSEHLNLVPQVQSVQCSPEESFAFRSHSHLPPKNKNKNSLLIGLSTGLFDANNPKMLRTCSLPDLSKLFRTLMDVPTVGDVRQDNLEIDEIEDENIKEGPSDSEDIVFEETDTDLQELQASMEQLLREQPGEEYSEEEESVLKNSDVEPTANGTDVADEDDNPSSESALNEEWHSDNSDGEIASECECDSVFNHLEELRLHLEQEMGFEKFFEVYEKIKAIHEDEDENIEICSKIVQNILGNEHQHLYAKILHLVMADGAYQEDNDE
Kind of test: Inhibition of human NEK1 at 1.82 nM by HotSpot assay relative to control.

The inhibition is the relative decrease from the control value, in per cent.

Tyrosine-protein kinase Fyn (Homo sapiens), sequence (P06241 2-537 limits assumed): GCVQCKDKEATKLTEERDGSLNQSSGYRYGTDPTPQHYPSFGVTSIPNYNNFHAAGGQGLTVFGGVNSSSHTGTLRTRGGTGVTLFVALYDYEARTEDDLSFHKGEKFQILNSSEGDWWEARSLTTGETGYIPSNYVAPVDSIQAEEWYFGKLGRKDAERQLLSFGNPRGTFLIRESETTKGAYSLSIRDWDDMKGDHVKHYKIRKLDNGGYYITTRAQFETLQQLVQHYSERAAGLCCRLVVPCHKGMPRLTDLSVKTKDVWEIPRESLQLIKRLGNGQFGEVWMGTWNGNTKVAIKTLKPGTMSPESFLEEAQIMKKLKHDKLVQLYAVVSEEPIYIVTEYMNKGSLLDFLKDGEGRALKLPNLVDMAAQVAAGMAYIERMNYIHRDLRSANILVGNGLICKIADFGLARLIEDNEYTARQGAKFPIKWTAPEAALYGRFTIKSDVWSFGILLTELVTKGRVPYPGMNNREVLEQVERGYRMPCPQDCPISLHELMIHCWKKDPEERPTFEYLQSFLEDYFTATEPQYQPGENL
Serine/threonine-protein kinase 33 (Homo sapiens), sequence (Q9BYT3 whole entry, looked up): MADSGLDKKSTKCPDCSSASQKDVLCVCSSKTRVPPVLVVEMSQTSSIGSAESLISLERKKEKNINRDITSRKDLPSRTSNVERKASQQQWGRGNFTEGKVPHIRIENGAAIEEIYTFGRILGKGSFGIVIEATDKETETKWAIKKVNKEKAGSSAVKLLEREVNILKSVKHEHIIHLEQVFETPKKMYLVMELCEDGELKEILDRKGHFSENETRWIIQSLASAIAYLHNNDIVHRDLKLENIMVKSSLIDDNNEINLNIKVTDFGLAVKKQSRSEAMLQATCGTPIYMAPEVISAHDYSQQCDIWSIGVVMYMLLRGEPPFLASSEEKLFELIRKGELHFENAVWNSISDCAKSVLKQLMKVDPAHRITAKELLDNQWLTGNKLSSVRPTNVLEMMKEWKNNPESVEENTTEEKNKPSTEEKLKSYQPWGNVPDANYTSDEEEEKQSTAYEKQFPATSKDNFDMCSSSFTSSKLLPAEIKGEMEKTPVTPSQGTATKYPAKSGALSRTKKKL

In the case of `C[C@]1(O)C[C@@H](c2nc(-c3ccc4ccc(-c5ccccc5)nc4c3)c3c(N)nccn32)C1`, the inhibition in test [1] is -0.08%; in test [2] it was -3.76%.
Consider `C[C@@]1(C(=O)Nc2ccc(F)nc2)CCCN1c1nc(Nc2cc(C3CC3)n[nH]2)c2cccn2n1`, for which the inhibition was -6.23% in test [3], -1.35% in test [4], -5.31% in test [5] and -2.03% in test [6].

The values above are taken from ChEMBL document CHEMBL5653615 (J Biol Chem, 2013).
